Source: patent publication US20250262167A1, “COMPOUNDS, TARGETS AND PATHWAYS FOR MACROPHAGE MODULATION” (Massachusetts Institute of Technology, priority 2020, published 2025)
Counter-ions that a name gives are not always drawn. Like-named read-outs stand apart in the source and are kept apart here.

Key:
[1] = system: hMDMs differentiated into M1 by IFNγ plus TNFα; test: Reprogramming screen and dosage response on M1-like differentiated macrophages; format: cell-based, human; conditions: Homo sapiens, Macrophage, 24 h; M2-activating compounds on M1-like macrophages (IFNγ plus TNFα); EC = concentration reaching Z-score cutoff
Method: Data were summarized from 3 independent experiments.
(§1) Human macrophages were seeded into optical 384-well plates. Sixteen hours later, medium in M1 plates were replaced by M1 differentiating medium (complete RPMI with 50 ng/mL IFNγ and 50 ng/mL TNFα) and medium in M2 plates by M2 differentiating medium (complete RPMI with 5 ng/mL IL-4 and 5 ng/mL IL-13). After 24 hrs cell differentiation, M1 plates (M1 macrophages) and M2 plates (M2 macrophages) were treated with M2-activating compounds and M1-activating compounds respectively for 24 hrs. Two independent experiments were performed with or without replacing differentiating medium right before treatment. Cell imaging and analysis were performed as indicated above.
To investigate whether the identified compounds could reprogram or reactivate macrophages after M1- or M2-like differentiation, we rescreened the hits on M1- or M2-activated macrophages. hMDMs were activated into M2-like macrophages by IL-4 plus IL-13 or M1-like macrophages by IFNγ plus TNFα. […] 24 hours later, cell images were taken and cell shapes were quantified.
(§2) We also rescreened the hits on differentiated macrophages in the presence of differentiating cytokines: either IL-4 plus IL-13 or IFNγ plus TNFα.

[2] = system: M1-like and M2-like differentiated hMDMs; test: RNA-seq of differentiated macrophages reprogrammed by compounds; format: cell-based, human; conditions: compound at EC, 24 hours
Method: FIGS. 4A-4F show reprogramming of differentiated macrophages by selected compounds. […] Controls include two differentiated M1 and M2 macrophages, M2 macrophages treated with IFNγ and M1 macrophages treated with IL-4. Gene expression in each sample was measured by RNA-seq separately. […] FIG. 4D show network of GO enriched terms using BiNGO on top 10% central hubs genes (n=1255) of macrophage activation network. Node color and size represent the FDR values of enriched GO terms. […] Shared (FIG. 4E) and unique pathways (FIG. 4F) are shown. Compound targets and FDA-approval information are indicated. […]
Differentially expressed genes were annotated using online functional enrichment analysis tool DAVID (http://david.ncifcrf.gov/). […] To quantify the levels of RNA transcripts, total RNA was extracted from various cells and reverse transcribed by TaqMan® Reverse Transcription Reagents Kit (ABI Catalog No. N8080234), followed by amplification with Sybr Green Master Mix (Roche Catalog No. 04707516001) with specific primers (Table 4) and detected by Roche LightCycler 480. […]
To determine the central hubs of all stimulation conditions by compounds (refer to FIG. 4) reflecting the core macrophage activation network, transcriptional interactions between genes were first determined by ARACNe based on the perturbed transcriptional profiles of 34 compounds as well as IFNγ and IL4 controls. […]

[3] = system: bone marrow derived macrophages (BMDMs); test: Seahorse ECAR (glycolysis) in BMDMs; format: cell-based, mouse; conditions: macrophages, NOX inhibition
Method: FIGS. 21A-21I show DPI stimulates glycolysis through GPR3 and β-arrestin2. FIGS. 21A-21B show DPI-stimulated glycolysis is independent of the NOX activity. […] The mean fluorescence intensity (MFI) of 2-NBDG in cells was measured by flow cytometry and normalized to DMSO controls of wildtype BMDMs. Data are presented as the mean±sd (n=3). […] ImKCs were transfected with siRNA specific for Gpr3 or a scramble siRNA as control. […] Data are presented as the mean±sd (n=4). […] Data are presented as the mean±sd (n=12). […] Abbr2^−/− ImKC were constructed by CRISPR-Cas9-mediated gene editing. […] Data are presented as the mean±sd (n=4). […]
Specific parameters for glycolytic capacity and glycolytic reserve were calculated and summarized based on two independent experiments. […]
FIGS. 29A-29B show comparison of DPI's effect on glycolysis in wild-type and Pkm^−/− BMDMs. […] ImKCs were treated with DMSO or DPI alone (500 nM) or DPI plus ERK1/2 inhibitor (SCH772984, […]) for 6 hrs and the enzymatic activities of PKM2 (c) and GAPDH (d) were measured by colorimetric assay kits (Biovision). […]
OCR and ECAR were measured in isolated tissues or cultured ImKCs using the Seahorse XFe Extracellular Flux Analyzer (Agilent). […] Glucose levels were determined using a glucose (GO) assay kit (Sigma). […] Lactate levels were determined using a lactate assay kit (Eton Bioscience). […]

PKM2 = test: PKM enzymatic activity (colorimetric kit) in treated ImKCs; format: cell-based, mouse; conditions: ERK1/2 phosphorylation inhibited
Method: Data are presented as the mean±sd (n=4). […] Data are presented as the mean±sd (n=6).
FIGS. 29A-29B show comparison of DPI's effect on glycolysis in wild-type and Pkm^−/− BMDMs. […] FIGS. 29C-29D show activation of PKM2 and GAPDH enzymatic activity by DPI is inhibited by ERK1/2 inhibitor. ImKCs were treated with DMSO or DPI alone (500 nM) or DPI plus ERK1/2 inhibitor (SCH772984, […]) for 6 hrs and the enzymatic activities of PKM2 (c) and GAPDH (d) were measured by colorimetric assay kits (Biovision). Data are presented as the mean±sd (n=6).
The enzymatic activities of PKM and GAPDH were measured using the pyruvate kinase activity assay kit (Biovision, #K709) and GAPDH activity assay kit (Biovision, #K680) according to the manufacturer's protocols, respectively.

M0 macrophages (hMDMs) = test: Dosage response of cell shape change on M0 macrophages; format: cell-based, human
[4] = system: hMDMs differentiated into M2 by IL-4 plus IL-13; test: Reprogramming screen and dosage response on M2-like differentiated macrophages;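 also: human monocyte-derived macrophages held 24 h in 5 ng/mL IL-4 plus IL-13 before 24 h compound exposure, with cell shape measured from images in 384-well plates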
Method: (§3) Shown are comparison of Z-scores between 5 μM or 10 μM of compounds. […] Shown are comparison of Z-scores between 5 μM or 10 μM of compounds. […] EC and fitness of 21 M1-polarizing (triangle) and 19 M2-polarizing compounds (circle) were calculated by the Michaelis-Menten equation and plotted. Data were summarized from 3 independent experiments.
as §1
(§4) To investigate whether the identified compounds could reprogram or reactivate macrophages after M1- or M2-like differentiation, we rescreened the hits on M1- or M2-activated macrophages. hMDMs were activated into M2-like macrophages by IL-4 plus IL-13 or M1-like macrophages by IFNγ plus TNFα. After removing the differentiating cytokines, M2-like macrophages were treated with each of the 166 M1-activating compounds and M1-like macrophages were treated with each of the 180 M2-activating compounds at a final concentration of either 5 μM and 10 μM. 24 hours later, cell images were taken and cell shapes were quantified. […] Dosage responses were carried out with 40 commercial available compounds (21 M1-activating and 19 M2-activating) on polarized macrophages.
as §2

[5] = system: hMDMs differentiated into M2 by IL-4 plus IL-13; conditions: differentiated macrophages;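 also: human monocyte-derived macrophages held 24 h in 5 ng/mL IL-4 plus IL-13 before 24 h compound exposure, with cell shape measured from images in 384-well plates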
Method: as §3, §1, §4, §2

[6] = system: human monocyte-derived macrophages (hMDMs); test: High throughput phenotypic screen of macrophage activation (cell shape, Z-score); format: cell-based; conditions: known M1-/M2-activating stimuli;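 also: phalloidin and DAPI stained hMDMs imaged by high-content microscopy, cell eccentricity compared with DMSO control by T-test, round morphology scored negative, elongated positive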
Method: The Z-score was calculated by T-test to measure the difference of cell morphology between treatment and control. Stimuli had negative Z-scores when induced cells to round morphology and positive scores when induced cells to elongated morphology. […] Equally mixed human monocytes isolated from fresh blood of 4 healthy donors were cultured in vitro with 50 ng/mL M-CSF for 7 days. hMDMs were trypsinized and plated on 384-well plates (5000 cells/well in 50 μL). Cells were recovered in 10 ng/mL M-CSF for 16 hrs and then treated with compounds for 24 hrs. Cells were washed, fixed and stained with Phalloidin and DAPI. The plates were scanned with a high-content microscope with six-fields per well to quantify the cell number and cell morphology. […] The cell eccentricity was calculated to measure the cell morphology. The Z-score was calculated by T-test to measure the difference in cell morphologies between each compound and DMSO control.
Cells were treated with a library of over 4000 individual compounds or drugs at the final concentration of 20 μM using the CyBi-Well simultaneous pipettor (CyBio). […] After 24 hr incubation, supernatants were removed using the microplate washer (Bioteck) and cells were fixed by adding 50 μL 16% paraformaldehyde (Thermo Scientific) with the dispenser for 20 minutes. Cells were then washed with 50 μL 1×PBS twice and incubated for 20 minutes with NucBlue and AF746 Phalloidin (Invitrogen) to stain nucleus and cytoskeleton. Cells were then washed with 50 μL 1×PBS twice and maintained in PBS for the image acquirement. Plates were read in the Opera Phenix high content screening system (PerkinElmer) to photograph cells using 20× objective in 2 fluorescent channels (Blue and FarRed). A total of 6 different fields in each well and an average of 1,000 cells were imaged per well. CellProfiler was used to identify each cell by overlapping signals from its nucleus and cytoskeleton, and calculate the eccentricity as the parameter to measure the cell morphology. The Z-score was calculated by T-test to measure the difference of cell morphology between each treatment and control. For each row of the 384-well plate, total 4 wells with first and last two columns treated with the same concentration of DMSO were combined as the control for the other 20 treatment wells in that row. In the meantime, classic M1 and M2 stimuli were added to generate the gold-standard Z-score cutoffs with M1 or M2 activation. Classic M1 stimuli include LPS (100 ng/mL), IFNγ (50 ng/mL, Peprotech), TNFα (50 ng/mL, Peprotech), or IFNγ plus TNFα. Classic M2 stimuli include IL-10 (10 ng/mL, Peprotech), IL-4 (10 ng/mL, Peprotech), or IL-13 (5 ng/mL, Peprotech).

hMDMs = test: Flow cytometry of M1 markers (CD80, CD86) and M2 markers (CD206, CD163) in hMDMs; format: cell-based, human; conditions: 24 hrs
Method: FIGS. 7A-7B show morphology and phenotypes of activated macrophages. […] The resulting macrophages were polarized to M1 by IFNγ or M2 by IL4. Then, M1 macrophages were treated with M2-type compound bosutinib ([…]) for 24 hrs, and M2 macrophages were treated with M1-type compound thiostrepton ([…]) for 24 hrs. F-actin was stained and images were acquired by fluorescent microscopy with 60× objective. Cell nuclei are stained with DAPI. Representative data were shown from two independent experiments. […] Shown are the representative staining profiles from three independent experiments. The numbers show mean fluorescent intensity (MFI)+/−standard error of the mean (SEM) for n=3 samples per group.
FIGS. 9A-9C show comparison of the differentially expressed genes induced by selected compounds (FIG. 9A), ligands for novel pathways (FIG. 9B), and controls (IL-4 and IFNγ). […] Shown are the changes of the relative mean fluorescence intensity (MFI) to controls. 0.2 refers to 20% MFI increase.
B6 mice were purchased from the Jackson Laboratory and maintained in the animal facility at the Massachusetts Institute of Technology (MIT). NSG mice were purchased from the Jackson Laboratory and maintained under specific pathogen-free conditions in the animal facilities at MIT. […] The data were analyzed by FlowJo. […]

## C(=N\NC1=NCCN1)/c1c2ccccc2c(/C=N/NC2=NCCN2)c2ccccc12 [Bisantrene dihydrochloride]
[1]
  EC (M2 Z-score cutoff): 1.98 µM
[2]
  unique pathway perturbed: perturbed the pathway of DNA topological change

## COc1cc(C(C)=O)ccc1O [apocynin]
[3]
  basal level of glycolytic activity: significantly reduced
PKM2
  DPI's effect on PKM2 enzymatic activity: abolished

## Nc1ccccc1NC(=O)c1ccc(CNC(=O)OCc2cccnc2)cc1 [MS275]
M0 macrophages (hMDMs); M0 macrophages
  Category: M1 (−4 for M1-activated macrophages)
M0 macrophages (hMDMs); M0 macrophages, EC = concentration inducing cell morphology changes to reach the M1 or M2 Z-score cutoff, Michaelis-Menten fit, 3 independent experiments, unit of the source corrected
  EC: 1.05 µM
M0 macrophages (hMDMs); M0 macrophages, Max Z-score from Michaelis-Menten equation, negative = round, positive = elongated
  Max absolute Z-value: −7.993
[2]
  unique pathway perturbed: perturbed the pathway of chromatin assembly
[4]; M1-activating compounds on M2-like macrophages (IL-4 plus IL-13), EC = concentration reaching Z-score cutoff
  EC: 0.811 µM
[4]; differentiated macrophages
  Category: M1 (−4 for M1-activated macrophages)

## CCCCCCCCc1ccc(CCC(N)(CO)CO)cc1 [FTY720]
M0 macrophages (hMDMs)
  Max absolute Z-value: −11.58
M0 macrophages (hMDMs); M0 macrophages
  Category: M1 (−4 for M1-activated macrophages)
[5]
  Category: M1 (−4 for M1-activated macrophages)
[4]; Homo sapiens, Macrophage, 24 h, read-out: EC
  EC (M1 Z-score cutoff): 0.131 µM

## IFNγ: classic M1 stimulus
[6]
  cell shape induced: round shape
hMDMs
  expression of M1 markers CD80 and CD86: up-regulated
  expression of M2 markers CD206 and CD163: suppressed
